Measurements reported in PMC7156458, “Synthetic biology based construction of biological activity-related library of fungal decalin-containing diterpenoid pyrones” (Nature Communications, 2020).

Target: Aβ42 (Homo sapiens, UniProt P05067)
Assay: Th-T (thioflavin-T) assay of Aβ42 aggregation
Assay type: biochemical
Conditions: for Th-T assay plate reading, mean of three wells (Supplementary Fig. 47): source data, Ab alone and No Ab as controls

Sequence of Aβ42 (P05067 672-713): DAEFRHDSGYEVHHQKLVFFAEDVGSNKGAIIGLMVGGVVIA

Th-T fluorescence, mean of three wells (Aβ42 aggregation time course, reading M117): 3.827 | Th-T fluorescence, mean of three wells (Aβ42 aggregation time course, reading M118): 3.826 | Th-T fluorescence, mean of three wells (Aβ42 aggregation time course, reading M119): 3.802 | Th-T fluorescence, mean of three wells (Aβ42 aggregation time course, reading M120): 3.809 | Th-T fluorescence, mean of three wells (Aβ42 aggregation time course, reading M121): 3.768 | Th-T fluorescence, mean of three wells (Aβ42 aggregation time course, reading M122): 3.8239 | Th-T fluorescence, mean of three wells (Aβ42 aggregation time course, reading M123): 3.779 | Th-T fluorescence, mean of three wells (Aβ42 aggregation time course, reading M124): 3.775 | Th-T fluorescence, mean of three wells (Aβ42 aggregation time course, reading M125): 3.791 | Th-T fluorescence, mean of three wells (Aβ42 aggregation time course, reading M126): 3.753 | Th-T fluorescence, mean of three wells (Aβ42 aggregation time course, reading M127): 3.782 | Th-T fluorescence, mean of three wells (Aβ42 aggregation time course, reading M128): 3.792 | Th-T fluorescence, mean of three wells (Aβ42 aggregation time course, reading M129): 3.762 | Th-T fluorescence, mean of three wells (Aβ42 aggregation time course, reading M130): 3.763 | Th-T fluorescence, mean of three wells (Aβ42 aggregation time course, reading M131): 3.755 | Th-T fluorescence, mean of three wells (Aβ42 aggregation time course, reading M132): 3.815 | Th-T fluorescence, mean of three wells (Aβ42 aggregation time course, reading M133): 3.777 | Th-T fluorescence, mean of three wells (Aβ42 aggregation time course, reading M134): 3.764 | Th-T fluorescence, mean of three wells (Aβ42 aggregation time course, reading M135): 3.756 | Th-T fluorescence, mean of three wells (Aβ42 aggregation time course, reading M136): 3.746 | Th-T fluorescence, mean of three wells (Supplementary Fig. 47, reading M137): 3.774 | Th-T fluorescence, mean of three wells (Supplementary Fig. 47, reading M138): 3.771 | Th-T fluorescence, mean of three wells (Supplementary Fig. 47, reading M139): 3.713 | Th-T fluorescence, mean of three wells (Supplementary Fig. 47, reading M140): 3.758 | Th-T fluorescence, mean of three wells (Supplementary Fig. 47, reading M141): 3.7322 | Th-T fluorescence, mean of three wells (Supplementary Fig. 47, reading M142): 3.721 | Th-T fluorescence, mean of three wells (Supplementary Fig. 47, reading M143): 3.695 | Th-T fluorescence, mean of three wells (Supplementary Fig. 47, reading M144): 3.702 | Th-T fluorescence, mean of three wells (Supplementary Fig. 47, reading M145): 3.716 | Th-T fluorescence, mean of three wells (Supplementary Fig. 47 source data, measurement M37 of time course): 3.803 | Th-T fluorescence, mean of three wells (Supplementary Fig. 47 source data, measurement M38 of time course): 3.788 | Th-T fluorescence, mean of three wells (Supplementary Fig. 47 source data, measurement M39 of time course): 3.823 | Th-T fluorescence, mean of three wells (Supplementary Fig. 47 source data, measurement M40 of time course): 3.844 | Th-T fluorescence, mean of three wells (Supplementary Fig. 47 source data, measurement M41 of time course): 3.831 | Th-T fluorescence, mean of three wells (Supplementary Fig. 47 source data, measurement M42 of time course): 3.8461 | Th-T fluorescence, mean of three wells (Supplementary Fig. 47 source data, measurement M43 of time course): 3.853 | Th-T fluorescence, mean of three wells (Supplementary Fig. 47 source data, measurement M44 of time course): 3.884 | Th-T fluorescence, mean of three wells (Supplementary Fig. 47 source data, measurement M45 of time course): 3.893 | Th-T fluorescence, mean of three wells (Supplementary Fig. 47 source data, measurement M46 of time course): 3.909 | Th-T fluorescence, mean of three wells (Supplementary Fig. 47 source data, measurement M47 of time course): 3.912 | Th-T fluorescence, mean of three wells (Supplementary Fig. 47 source data, measurement M48 of time course): 3.912 | Th-T fluorescence, mean of three wells (Supplementary Fig. 47 source data, measurement M49 of time course): 3.934 | Th-T fluorescence, mean of three wells (Supplementary Fig. 47 source data, measurement M50 of time course): 3.962 | Th-T fluorescence, mean of three wells (Supplementary Fig. 47 source data, measurement M51 of time course): 3.932 | Th-T fluorescence, mean of three wells (Supplementary Fig. 47 source data, measurement M52 of time course): 3.964 | Th-T fluorescence, mean of three wells (Supplementary Fig. 47 source data, measurement M53 of time course): 3.941 | Th-T fluorescence, mean of three wells (Supplementary Fig. 47 source data, measurement M54 of time course): 3.968 | Th-T fluorescence, mean of three wells (Supplementary Fig. 47 source data, measurement M55 of time course): 3.9543 | Th-T fluorescence, mean of three wells (Supplementary Fig. 47 source data, measurement M56 of time course): 4.004 | Th-T assay plate reading, mean of three wells (Supplementary Fig. 47) (measurement M1): 0.2027 | Th-T assay plate reading, mean of three wells (Supplementary Fig. 47) (measurement M2): 0.2169 | Th-T assay plate reading, mean of three wells (Supplementary Fig. 47) (measurement M3): 0.2567 | Th-T assay plate reading, mean of three wells (Supplementary Fig. 47) (measurement M4): 0.2868 | Th-T assay plate reading, mean of three wells (Supplementary Fig. 47) (measurement M5): 0.363 | Th-T assay plate reading, mean of three wells (Supplementary Fig. 47) (measurement M6): 0.3665 | Th-T assay plate reading, mean of three wells (Supplementary Fig. 47) (measurement M7): 0.43 | Th-T assay plate reading, mean of three wells (Supplementary Fig. 47) (measurement M8): 0.4699 | Th-T assay plate reading, mean of three wells (Supplementary Fig. 47) (measurement M9): 0.5243 | Th-T assay plate reading, mean of three wells (Supplementary Fig. 47) (measurement M10): 0.5956 | Th-T assay plate reading, mean of three wells (Supplementary Fig. 47) (measurement M11): 0.7582 | Th-T assay plate reading, mean of three wells (Supplementary Fig. 47) (measurement M12): 1.169 | Th-T assay plate reading, mean of three wells (Supplementary Fig. 47) (measurement M13): 1.941 | Th-T assay plate reading, mean of three wells (Supplementary Fig. 47) (measurement M14): 2.67 | Th-T assay plate reading, mean of three wells (Supplementary Fig. 47) (measurement M15): 3.082 | Th-T assay plate reading, mean of three wells (Supplementary Fig. 47) (measurement M16): 3.287 | Th-T fluorescence, mean of three wells (reading M17, Supplementary Fig. 47 source data): 3.39 | Th-T fluorescence, mean of three wells (reading M18, Supplementary Fig. 47 source data): 3.467 | Th-T fluorescence, mean of three wells (reading M19, Supplementary Fig. 47 source data): 3.485 | Th-T fluorescence, mean of three wells (reading M20, Supplementary Fig. 47 source data): 3.511 | Th-T fluorescence, mean of three wells (reading M21, Supplementary Fig. 47 source data): 3.555 | Th-T fluorescence, mean of three wells (reading M22, Supplementary Fig. 47 source data): 3.568 | Th-T fluorescence, mean of three wells (reading M23, Supplementary Fig. 47 source data): 3.6 | Th-T fluorescence, mean of three wells (reading M24, Supplementary Fig. 47 source data): 3.61 | Th-T fluorescence, mean of three wells (reading M25, Supplementary Fig. 47 source data): 3.637 | Th-T fluorescence, mean of three wells (reading M26, Supplementary Fig. 47 source data): 3.637 | Th-T fluorescence, mean of three wells (reading M27, Supplementary Fig. 47 source data): 3.663 | Th-T fluorescence, mean of three wells (reading M28, Supplementary Fig. 47 source data): 3.673 | Th-T fluorescence, mean of three wells (reading M29, Supplementary Fig. 47 source data): 3.697 | Th-T fluorescence, mean of three wells (reading M30, Supplementary Fig. 47 source data): 3.695 | Th-T fluorescence, mean of three wells (reading M31, Supplementary Fig. 47 source data): 3.715 | Th-T fluorescence, mean of three wells (reading M32, Supplementary Fig. 47 source data): 3.7502 | Th-T fluorescence, mean of three wells (reading M33, Supplementary Fig. 47 source data): 3.748 | Th-T fluorescence, mean of three wells (reading M34, Supplementary Fig. 47 source data): 3.745 | Th-T fluorescence, mean of three wells (reading M35, Supplementary Fig. 47 source data): 3.779 | Th-T fluorescence, mean of three wells (reading M36, Supplementary Fig. 47 source data): 3.8 | Th-T fluorescence, mean of three wells (time course, reading M57): 3.991 | Th-T fluorescence, mean of three wells (time course, reading M58): 4.013 | Th-T fluorescence, mean of three wells (time course, reading M59): 3.958 | Th-T fluorescence, mean of three wells (time course, reading M60): 3.988 | Th-T fluorescence, mean of three wells (time course, reading M61): 3.973 | Th-T fluorescence, mean of three wells (time course, reading M62): 3.97 | Th-T fluorescence, mean of three wells (time course, reading M63): 3.951 | Th-T fluorescence, mean of three wells (time course, reading M64): 3.976 | Th-T fluorescence, mean of three wells (time course, reading M65): 3.959 | Th-T fluorescence, mean of three wells (time course, reading M66): 3.962 | Th-T fluorescence, mean of three wells (time course, reading M67): 3.958 | Th-T fluorescence, mean of three wells (time-course reading M97, Supplementary Fig. 47 source data): 3.893 | Th-T fluorescence, mean of three wells (time-course reading M98, Supplementary Fig. 47 source data): 3.89 | Th-T fluorescence, mean of three wells (time-course reading M99, Supplementary Fig. 47 source data): 3.924 | Th-T fluorescence, mean of three wells (time-course reading M100, Supplementary Fig. 47 source data): 3.864 | Th-T fluorescence, mean of three wells (time-course reading M101, Supplementary Fig. 47 source data): 3.863 | Th-T fluorescence, mean of three wells (time-course reading M102, Supplementary Fig. 47 source data): 3.862 | Th-T fluorescence, mean of three wells (time-course reading M103, Supplementary Fig. 47 source data): 3.898 | Th-T fluorescence, mean of three wells (time-course reading M104, Supplementary Fig. 47 source data): 3.892 | Th-T fluorescence, mean of three wells (time-course reading M105, Supplementary Fig. 47 source data): 3.876 | Th-T fluorescence, mean of three wells (time-course reading M106, Supplementary Fig. 47 source data): 3.8607 | Th-T fluorescence, mean of three wells (time-course reading M107, Supplementary Fig. 47 source data): 3.854 | Th-T fluorescence, mean of three wells (time-course reading M108, Supplementary Fig. 47 source data): 3.8485 | Th-T fluorescence, mean of three wells (time-course reading M109, Supplementary Fig. 47 source data): 3.821 | Th-T fluorescence, mean of three wells (time-course reading M110, Supplementary Fig. 47 source data): 3.872 | Th-T fluorescence, mean of three wells (time-course reading M111, Supplementary Fig. 47 source data): 3.799 | Th-T fluorescence, mean of three wells (time-course reading M112, Supplementary Fig. 47 source data): 3.848 | Th-T fluorescence, mean of three wells (time-course reading M113, Supplementary Fig. 47 source data): 3.819 | Th-T fluorescence, mean of three wells (time-course reading M114, Supplementary Fig. 47 source data): 3.862 | Th-T fluorescence, mean of three wells (time-course reading M115, Supplementary Fig. 47 source data): 3.831 | Th-T fluorescence, mean of three wells (time-course reading M116, Supplementary Fig. 47 source data): 3.8198
SMILES: C=C1CC[C@H]2[C@]3(C)C[C@H](C=C(C)C)O[C@H]3CC[C@]2(C)[C@@H]1Cc1c(OC)oc(CO)c(C)c1=O [Compound 18]
